Reference: US8623911B2, “Boron-containing small molecules as anti-protozoal agent” (Anacor Pharmaceuticals, Inc., priority 2010, dated 2014)

Assays:
[1] = test system: TREU 667 strain of T. b. brucei; assay: Chronic CNS Model [Murine Stage 2 HAT]; assay type: in vivo; conditions: treated on Day 21 (10 mg/kg), negative control
Procedure: Mice were infected with 10,000 parasites of the TREU 667 strain of T. b. brucei. Twenty one days post-infection mice were treated with a dose of between 6 and 100 mg/kg of a compound of the invention, either BID or QD for 7 days intraperitoneally (IP) or orally (PO). Positive control mice were treated with Diminazene (10 mg/kg, IP) on Day 4 post-infection. Negative control mice were treated with Diminazene (10 mg/kg, PO) on Day 21. Since Diminazene is not able to penetrate the CNS, mice treated at Day 21 are not able to cure the infection. Starting 1 week after treatment, mice were checked for parasitemia by microscopic examination of smears prepared from tail vein blood. Parasite positive animals were immediately removed from the cages and euthanized. Animals were considered to be cured of a CNS infection if they were aparasitemic for at least 180 days after the end of the treatment period.

[2] = test system: LAB 110 Eatro strain of T. b. brucei; assay: Acute Murine Model A [Murine Stage 1 HAT]; assay type: in vivo; conditions: for Mean Survival Days: mice infected with T. b. brucei, 10 mg/kg, BID, orally, 4 days
Procedure: Female Swiss Webster mice were inoculated with 250,000 parasites of the LAB 110 Eatro strain of T. b. brucei. 24 hrs post-infection, treatment was initiated by administration of a compound of the invention BID for 4 days with 20 mg/kg/dose (40 mg/kg/day) intraperitoneally (IP) or orally (PO), 5 mg/kg BID or 10 mg/kg BID orally (PO). 3 mice per group were treated with a particular compound of the invention. Mice were checked for parasitemia weekly by microscopic examination of smears prepared from tail vein blood. Animals remaining parasite free for more than 30 days beyond the end of the treatment period were considered cured. Control untreated animals typically succumbed to the infection within 4-5 days following i.p. inoculation with parasites. Mice were monitored for 30 days for survival. Pentamidine at 2 mg/kg IP was used as the positive control. After 10 days, 0% of the untreated mice were parasite free. After 10 days, 67% of mice treated PO with 10 mg/kg BID of N-(1-Hydroxy-3,4-dihydro-1H-benzo[c][1,2]oxaborinin-7-yl)-4-methoxy-benzamide (M19) were parasite free. After 30 days, 100% of mice treated PO with 10 mg/kg BID of 4-fluoro-N-(1-hydroxy-3,4-dihydro-1H-benzo[c][1,2]oxaborinin-7-yl)-2-trifluoromethyl-benzamide (M1) were parasite free.

MDCK-MDR1 cells = assay: in vitro; assay type: in vitro ADME, canine; conditions: 3 μM test compound
Procedure: (§1) MDCK-MDR1 cells (Madin-Darby canine kidney cells transfected with the human MDR1 gene) (Dr. Piet Borst, NKI-AVL, Amsterdam, The Netherlands) were seeded at 300,000 cells per well onto microporous, polycarbonate membranes in 12 well Costar Transwell® plates (Corning, Corning, N.Y.). The medium was removed and replaced with fresh cell culture medium approximately 24 hours after plating. Cells attained confluency and were ready for use in the transport assay after 72 hours of incubation.
(§2) A stock solution of each compound was prepared in DMSO at a concentration of 10 mg/mL. Stock solutions were further diluted in DMSO to a concentration of 1 mM for use in the assay. The final assay concentration of test compound in each incubation mixture was 3 μM and the final concentration of DMSO was 0.3%.
(§3) Cell cultures were pre-incubated with Transport Medium (TM), consisting of Hanks Balanced Salt Solution (HBSS), 25 mM glucose, and 25 mM HEPES, with and without the known P-gp inhibitor GF120918 (2 μM final assay concentration), for 30-60 minutes prior to the addition of test and control compounds. Following the pre-incubation period, transepithelial electrical resistance (TEER) measurements were taken on each insert to insure the integrity of the monolayer. The range for TEER values was 45-85Ω·cm^2. Transport medium was removed. Fresh transport media (1.5 mL) with or without GF120918 was added to the basolateral chambers. Solutions of the test compound were diluted into TM and added to the appropriate wells in triplicate (400 μL/well) at a final concentration of 3 μM with and without GF120918. The final concentration of DMSO was 0.3%. Control compounds were tested in triplicate at a final concentration of 3 μM. Cell monolayers were incubated with shaking (160 rpm) at 37° C. with 5% CO2 in a humidified incubator for one hour. Following the incubation, all plates were removed from the incubator. Inserts were removed from the plates and TEER measurements were again taken on each insert prior to removing samples for analysis to ensure no degradation of the tight junctions during the assay. An aliquot was taken from each receiver and diluted 1:3 with organic solvent (methanol) to assess transport of each compound across the monolayer. An aliquot was taken from each donor and diluted 1:2 with organic solvent (methanol) and then again 1:50 with matrix (50% methanol/50% TM) to assess mass balance within the study. All samples were assayed for test compound concentrations by LC-MS/MS using electrospray ionization.

P-gp (human MDR1) = assay: in vitro; assay type: in vitro ADME, canine; conditions: dog, MDCK-MDR1; 3 μM test compound; without GF120918; read-out: MDCK-MCR1 Papp
Procedure: as §1, §2, §3

SMILES | day by which all animals relapsed to exhibit blood parasitemia [1] [days] | mice parasite free after 10 days ([2]; female Swiss Webster mice, PO 10 mg/kg BID for 4 days, after 10 days) [%] | Mean Survival Days [2] [days] | MDCK-MCR1 AQ (MDCK-MDR1 cells) | Papp at 1 h, 3 µM (P-gp (human MDR1)) [×10⁻⁶ cm/s]
N=C(N)c1ccc(/N=N/Nc2ccc(C(=N)N)cc2)cc1 [Diminazene, reference compound] | ≤ 56 |  |  |  | 
COc1ccc(C(=O)Nc2ccc3c(c2)B(O)OCC3)cc1 [M19, N-(1-Hydroxy-3,4-dihydro-1H-benzo[c][1,2]oxaborinin-7-yl)-4-methoxybenzamide] |  | 67 | 9 |  | 
CC(C)c1ccc(S(=O)(=O)Nc2ccc3c(c2)B(O)OCC3)cc1 [M47, N-(1-Hydroxy-3,4-dihydro-1H-benzo[c][1,2]oxaborinin-7-yl)-4-isopropyl-benzenesulfonamide] |  |  | 9 | 0.04 | 64.8
CC(C)(C)c1ccc(C(=O)Nc2ccc3c(c2)B(O)OCC3)cc1 [M14, 4-tert-Butyl-N-(1-hydroxy-3,4-dihydro-1H-benzo[c][1,2]oxaborinin-7-yl)-benzamide] |  |  | 3.6 |  | 
CC1(C)COB(O)c2cc(NC(=O)c3ccc(F)cc3C(F)(F)F)ccc21 [M51] |  |  | 3.6 |  | 
CCc1ccc(C(=O)Nc2ccc3c(c2)B(O)OCC3)cc1 [M12, 4-Ethyl-N-(1-hydroxy-3,4-dihydro-1H-benzo[c][1,2]oxaborinin-7-yl)-benzamide] |  |  | 8 | −0.04 | 80.3
O=S(=O)(Nc1ccc2c(c1)B(O)OCC2)c1ccc(Cl)cc1 [M43, 4-Chloro-N-(1-hydroxy-3,4-dihydro-1H-benzo[c][1,2]oxaborinin-7-yl)-benzenesulfonamide] |  |  |  | 0.05 | 64.9
Cc1ccc(S(=O)(=O)Nc2ccc3c(c2)B(O)OCC3)cc1 [M46, N-(1-Hydroxy-3,4-dihydro-1H-benzo[c][1,2]oxaborinin-7-yl)-4-methylbenzenesulfonamide] |  |  | 5 | 0.05 | 77.1
O=C(Nc1ccc2c(c1)B(O)OCC2)c1ccccc1C(F)(F)F [M15, N-(1-Hydroxy-3,4-dihydro-1H-benzo[c][1,2]oxaborinin-7-yl)-2-trifluoromethyl-benzamide] |  |  | >30 |  | 
O=C(Nc1ccc2c(c1)B(O)OCC2)c1ccccc1Br [M8, 2-Bromo-N-(1-hydroxy-3,4-dihydro-1H-benzo[c][1,2]oxaborinin-7-yl)-benzamide] |  |  | 5.6 |  | 
O=C(Nc1ccc2c(c1)B(O)OCC2)c1ccc(Cl)cc1F [M29, 4-Chloro-2-fluoro-N-(1-hydroxy-3,4-dihydro-1H-benzo[c][1,2]oxaborinin-7-yl)-benzamide] |  |  | >30 | −0.04 | 80.4
O=C(Nc1ccc2c(c1)B(O)OCC2)c1ccccc1Cl [M5, 2-Chloro-N-(1-hydroxy-3,4-dihydro-1H-benzo[c][1,2]oxaborinin-7-yl)-benzamide] |  |  | 7 | 0.1 | 70.7
COC(=O)c1ccc(C(=O)Nc2ccc3c(c2)B(O)OCC3)cc1 [M40, N-(1-Hydroxy-3,4-dihydro-1H-benzo[c][1,2]oxaborinin-7-yl)-terephthalamic acid methyl ester] |  |  | 4 |  | 
O=C(Nc1ccc2c(c1)B(O)OCC2)c1ccc(Cl)cc1Cl [M27, 2,4-Dichloro-N-(1-hydroxy-3,4-dihydro-1H-benzo[c][1,2]oxaborinin-7-yl)-benzamide] |  |  | >30 | −0.03 | 85.1
